Measurements published in patent US20120197004A1, “NOVEL ANTI-MICROBIAL PEPTIDOMIMETIC COMPOUNDS AND METHODS TO CALCULATE ANTI-MICROBIAL ACTIVITY” (priority 2006, published 2012).
≈ marks a conversion by molar mass, not a printed value. Where two headings read alike, the source gives them in different places. Where a SMILES comes first, the peptide text is derived from it. [ ]: non-standard residue; d: D form. ξ: configuration not given here. Oic = O=C(O)[C@@H]1C[C@@H]2CCCC[C@@H]2N1; Tic = O=C(O)[C@@H]1Cc2ccccc2CN1; 2Thi = N[C@@H](Cc1cccs1)C(=O)O; ξTic = O=C(O)C1Cc2ccccc2CN1; ξOic = O=C(O)C1CC2CCCCC2N1; Dab = NCC[C@H](N)C(=O)O; Ahx = NCCCCCC(=O)O; GABA = NCCCC(=O)O; βAla = NCCC(=O)O

Assays:
in vitro [1] = details: dog, microsomes, pH 7.4
Bacillus anthracis Ames = details: in vitro MIC
[2] = system: Staphylococcus aureus Methicillin/Gentamicin/Tetracycline Resistant (ATCC 33592); details: in vitro MIC; tested at 100, 30, 10, 3, 1, 0.3 and 0.1 μM in 1% DMSO
in vitro [3] = details: monkey, microsomes, pH 7.4
in vitro [4] = details: human, microsomes, pH 7.4
in vitro [5] = details: mouse, microsomes, pH 7.4
B. melitensis 16M = details: in vitro MIC
[6] = system: Mycobacterium ranae (ATCC 110); details: ATCC 110
Plague CO92 = details: in vitro MIC
in vitro [7] = details: rat, microsomes, pH 7.4
F. tularensis SCHU-S4 = details: in vitro MIC
[8] = system: Bacillus subtillis (ATCC 43223); details: ATCC 43223
[9] = system: Salmonella typhimurium (ATCC 13311); details: ATCC 13311

CC(=O)NCC(=O)N[C@@H](Cc1ccccc1)C(=O)N1Cc2ccccc2CC1C(=O)N1C(C(=O)NCC(=O)N[C@@H](CCCCN)C(=O)N2Cc3ccccc3CC2C(=O)N2C(C(=O)NCC(=O)N[C@@H](Cc3ccccc3)C(=O)N3Cc4ccccc4CC3C(=O)N3C(C(=O)NCC(=O)N[C@@H](CCCCN)C(=O)N4Cc5ccccc5CC4C(=O)NCCCC(=O)N[C@@H](CCCCN)C(=O)N[C@@H](CCCCN)C(=O)N[C@@H](CCCCN)C(=O)N[C@@H](CCCCN)C(N)=O)CC4CCCCC43)CC3CCCCC32)CC2CCCCC21 (stereo partly drawn) [FKAB-1G-Gaba, Ac-GF-Tic-Oic-GK-Tic-Oic-GF-Tic-Oic-GK-Tic-Gaba-KKKK-CONH2] (Ac-GF[ξTic][ξOic]GK[ξTic][ξOic]GF[ξTic][ξOic]GK[ξTic][GABA]KKKK-NH2)
remaining at 0.5 h, 1 μM (in vitro [1]): 80%
remaining at 1 h, 1 μM (in vitro [1]): 86%
Minimum Inhibitory Concentration Bacillus anthracis Ames (Bacillus anthracis Ames; listed as 53): 0.98 µg/mL
Minimum Inhibitory Concentration Staphylococcus aureus ME/GM/TC resistant [2]: 10 µM
remaining at 0.25 h, 1 μM (in vitro [3]): 117%
remaining at 0.5 h, 1 μM (in vitro [3]): 120%
remaining at 0.25 h, 1 μM (in vitro [4]): 118%
remaining at 0.25 h, 1 μM (in vitro [5]): 88%
remaining at 0.5 h, 1 μM (in vitro [5]): 71%
remaining at 1 h, 1 μM (in vitro [5]): 66%
Minimum Inhibitory Concentration B. melitensis 16M (B. melitensis 16M): >500 µg/mL
Minimum Inhibitory Concentration Mycobacterium ranae [6]: 3 µM
Minimum Inhibitory Concentration Plague CO92 (Plague CO92; listed as 53): 31.25 µg/mL
remaining at 0.25 h, 1 μM (in vitro [7]): 113%
remaining at 0.5 h, 1 μM (in vitro [7]): 72%
remaining at 1 h, 1 μM (in vitro [7]): 104%
Minimum Inhibitory Concentration F. tularensis SCHU-S4 (F. tularensis SCHU-S4): >500 µg/mL

CC(=O)NCC(=O)N[C@@H](Cc1ccccc1)C(=O)N1Cc2ccccc2C[C@H]1C(=O)N1[C@H](C(=O)NCC(=O)N[C@@H](CCCCN)C(=O)N2Cc3ccccc3C[C@H]2C(=O)N2[C@H](C(=O)NCC(=O)N[C@@H](Cc3ccccc3)C(=O)N3Cc4ccccc4C[C@H]3C(=O)N3[C@H](C(=O)NCC(=O)N[C@@H](CCCCN)C(=O)N4Cc5ccccc5C[C@H]4C(=O)NCCC(=O)N[C@@H](CCCCN)C(=O)N[C@@H](CCCCN)C(=O)N[C@@H](CCCCN)C(=O)N[C@@H](CCCCN)C(N)=O)C[C@@H]4CCCC[C@@H]43)C[C@@H]3CCCC[C@@H]32)C[C@@H]2CCCC[C@@H]21 [FKAB-1G-βA, Ac-GF-Tic-Oic-GK-Tic-Oic-GF-Tic-Oic-GK-Tic-βAla-KKKK-CONH2] (Ac-GF[Tic][Oic]GK[Tic][Oic]GF[Tic][Oic]GK[Tic][βAla]KKKK-NH2)
remaining at 0.5 h, 1 μM (in vitro [1]): 66%
remaining at 1 h, 1 μM (in vitro [1]): 105%
Minimum Inhibitory Concentration Bacillus anthracis Ames (Bacillus anthracis Ames; listed as 52): 1.95 µg/mL
Minimum Inhibitory Concentration Staphylococcus aureus ME/GM/TC resistant [2]: 30 µM
remaining at 0.25 h, 1 μM (in vitro [5]): 11%
Minimum Inhibitory Concentration B. melitensis 16M (B. melitensis 16M): >500 µg/mL
Minimum Inhibitory Concentration Mycobacterium ranae [6]: 10 µM
Minimum Inhibitory Concentration Plague CO92 (Plague CO92; listed as 52): 31.25 µg/mL
remaining at 0.25 h, 1 μM (in vitro [7]): 118%
remaining at 1 h, 1 μM (in vitro [7]): 44%
Minimum Inhibitory Concentration F. tularensis SCHU-S4 (F. tularensis SCHU-S4): 250 µg/mL

CC(=O)NCC(=O)N[C@@H](Cc1ccccc1)C(=O)N1Cc2ccccc2CC1C(=O)N1C(C(=O)NCC(=O)N[C@@H](CCN)C(=O)N2Cc3ccccc3CC2C(=O)N2C(C(=O)NCC(=O)N[C@@H](Cc3ccccc3)C(=O)N3Cc4ccccc4CC3C(=O)N3C(C(=O)NCC(=O)N[C@@H](CCN)C(=O)N4Cc5ccccc5CC4C(=O)N[C@@H](CCN)C(=O)N[C@@H](CCN)C(=O)N[C@@H](CCN)C(=O)N[C@@H](CCN)C(N)=O)CC4CCCCC43)CC3CCCCC32)CC2CCCCC21 (stereo partly drawn) [FKAB-1Gz, Ac-GF-Tic-Oic-G-Dab-Tic-Oic-GF-Tic-Oic-G-Dab-Tic-Dab-Dab-Dab-Dab-CONH2] (Ac-GF[ξTic][ξOic]G[Dab][ξTic][ξOic]GF[ξTic][ξOic]G[Dab][ξTic][Dab][Dab][Dab][Dab]-NH2)
remaining at 1 h, 1 μM (in vitro [1]): 3%
Minimum Inhibitory Concentration Bacillus anthracis Ames (Bacillus anthracis Ames; listed as 55): 0.98 µg/mL
Minimum Inhibitory Concentration Staphylococcus aureus ME/GM/TC resistant [2]: 10 µM
remaining at 0.5 h, 1 μM (in vitro [3]): 119%
remaining at 0.25 h, 1 μM (in vitro [5]): 74%
remaining at 0.5 h, 1 μM (in vitro [5]): 29%
remaining at 1 h, 1 μM (in vitro [5]): 42%
Minimum Inhibitory Concentration B. melitensis 16M (B. melitensis 16M): >500 µg/mL
Minimum Inhibitory Concentration Mycobacterium ranae [6]: 10 µM
Minimum Inhibitory Concentration Plague CO92 (Plague CO92; listed as 55): 15.6 µg/mL
remaining at 0.25 h, 1 μM (in vitro [7]): 21%
remaining at 0.5 h, 1 μM (in vitro [7]): 7%
remaining at 1 h, 1 μM (in vitro [7]): 80%
Minimum Inhibitory Concentration F. tularensis SCHU-S4 (F. tularensis SCHU-S4): 125 µg/mL

NCCCC[C@H](NC(=O)[C@H](CCCCN)NC(=O)[C@H](CCCCN)NC(=O)[C@H](CCCCN)NC(=O)C1Cc2ccccc2CN1C(=O)[C@H](CCCCN)NC(=O)CNC(=O)C1CC2CCCCC2N1C(=O)C1Cc2ccccc2CN1C(=O)[C@H](Cc1ccccc1)NC(=O)CNC(=O)C1CC2CCCCC2N1C(=O)C1Cc2ccccc2CN1C(=O)[C@H](CCCCN)NC(=O)CNC(=O)C1CC2CCCCC2N1C(=O)C1Cc2ccccc2CN1C(=O)[C@H](Cc1ccccc1)NC(=O)CNC(=O)[C@@H](N)Cc1cccs1)C(N)=O (stereo partly drawn) [FKAB-1G-Thi, Thi-GF-Tic-Oic-GK-Tic-Oic-GF-Tic-Oic-GK-Tic-KKKK-CONH2] (H-[2Thi]GF[ξTic][ξOic]GK[ξTic][ξOic]GF[ξTic][ξOic]GK[ξTic]KKKK-NH2)
remaining at 0.5 h, 1 μM (in vitro [1]): 61%
Minimum Inhibitory Concentration Bacillus anthracis Ames (Bacillus anthracis Ames; listed as 56): 1.95 µg/mL
Minimum Inhibitory Concentration Staphylococcus aureus ME/GM/TC resistant [2]: 10 µM
remaining at 0.25 h, 1 μM (in vitro [5]): 41%
remaining at 0.5 h, 1 μM (in vitro [5]): 67%
Minimum Inhibitory Concentration B. melitensis 16M (B. melitensis 16M): >500 µg/mL
Minimum Inhibitory Concentration Mycobacterium ranae [6]: 30 µM
Minimum Inhibitory Concentration Plague CO92 (Plague CO92; listed as 56): 15.6 µg/mL
remaining at 0.25 h, 1 μM (in vitro [7]): 107%
remaining at 0.5 h, 1 μM (in vitro [7]): 61%
Minimum Inhibitory Concentration F. tularensis SCHU-S4 (F. tularensis SCHU-S4): 250 µg/mL

CC(=O)NCC(=O)N[C@@H](Cc1ccccc1)C(=O)N1Cc2ccccc2CC1C(=O)N1C(C(=O)NCC(=O)N[C@@H](CCCCN)C(=O)N2Cc3ccccc3CC2C(=O)N2C(C(=O)NCC(=O)N[C@@H](Cc3ccccc3)C(=O)N3Cc4ccccc4CC3C(=O)N3C(C(=O)NCC(=O)N[C@@H](CCCCN)C(=O)N4Cc5ccccc5CC4C(=O)NCCCCCC(=O)N[C@@H](CCCCN)C(=O)N[C@@H](CCCCN)C(=O)N[C@@H](CCCCN)C(=O)N[C@@H](CCCCN)C(N)=O)CC4CCCCC43)CC3CCCCC32)CC2CCCCC21 (stereo partly drawn) [FKAB-1G-Ahx, Ac-GF-Tic-Oic-GK-Tic-Oic-GF-Tic-Oic-GK-Tic-Ahx-KKKK-CONH2] (Ac-GF[ξTic][ξOic]GK[ξTic][ξOic]GF[ξTic][ξOic]GK[ξTic][Ahx]KKKK-NH2)
remaining at 0.5 h, 1 μM (in vitro [1]): 79%
remaining at 1 h, 1 μM (in vitro [1]): 84%
Minimum Inhibitory Concentration Bacillus anthracis Ames (Bacillus anthracis Ames; listed as 54): 1.95 µg/mL
Minimum Inhibitory Concentration Staphylococcus aureus ME/GM/TC resistant [2]: 30 µM
remaining at 0.25 h, 1 μM (in vitro [4]): 112%
remaining at 0.25 h, 1 μM (in vitro [5]): 97%
remaining at 0.5 h, 1 μM (in vitro [5]): 98%
remaining at 1 h, 1 μM (in vitro [5]): 113%
Minimum Inhibitory Concentration B. melitensis 16M (B. melitensis 16M): >500 µg/mL
Minimum Inhibitory Concentration Mycobacterium ranae [6]: 10 µM
Minimum Inhibitory Concentration Plague CO92 (Plague CO92; listed as 54): 15.6 µg/mL
remaining at 0.25 h, 1 μM (in vitro [7]): 120%
remaining at 0.5 h, 1 μM (in vitro [7]): 106%
Minimum Inhibitory Concentration F. tularensis SCHU-S4 (F. tularensis SCHU-S4): 250 µg/mL

CC(=O)NCC(=O)N[C@@H](Cc1ccccc1)C(=O)N1Cc2ccccc2CC1C(=O)NCC(=O)N[C@@H](CCCCN)C(=O)N1Cc2ccccc2CC1C(=O)NCC(=O)N[C@@H](Cc1ccccc1)C(=O)N1Cc2ccccc2CC1C(=O)NCC(=O)N[C@@H](CCCCN)C(=O)N1Cc2ccccc2CC1C(=O)N[C@@H](CCCCN)C(=O)N[C@@H](CCCCN)C(=O)N[C@@H](CCCCN)C(=O)N[C@@H](CCCCN)C(N)=O (stereo partly shown) [FKAB-1Gg, Ac-GF-Tic-GK-Tic-GF-Tic-GK-Tic-KKKK-CONH2] (Ac-GF[ξTic]GK[ξTic]GF[ξTic]GK[ξTic]KKKK-NH2)
% hemolysis 100/25 μM (first value) (red blood cells; 100 μM): 6%
% hemolysis 100/25 μM (second value) (red blood cells; 25): 4.9%
Minimum Inhibitory Concentration Bacillus anthracis Ames (Bacillus anthracis Ames; listed as 34): 0.98 µg/mL
MIC Bacillus Subtillis [8]: 10.00 µM (≈ 19.9 µg/mL)
MIC Salmonella typhimurium [9]: 100 µM (≈ 199 µg/mL)
Minimum Inhibitory Concentration B. melitensis 16M (B. melitensis 16M): >500 µg/mL
MIC Mycobacterium ranae [6]: 30.00 µM (≈ 59.6 µg/mL)
Minimum Inhibitory Concentration Plague CO92 (Plague CO92; listed as 34): 31.25 µg/mL
Minimum Inhibitory Concentration F. tularensis SCHU-S4 (F. tularensis SCHU-S4): 250 µg/mL
